Tested on: HIV-1
Assay: Reverse transcriptase levels of cells already infected with HIV-1
Format: cell-based
Details: reverse transcriptase activity, virus particle production, virus particle morphology
Experimental: Virus infected cells were pelleted by centrifugation and 50 µl of culture suprenatant was collected from each well for assay. Culture supernatant (25 µl) was plated in 96 well round bottomed plates and 50 µl of transcriptase cocktail was added to each well. Cocktail is 50 mM Tris-HC1, pH 8.0, 20 mM DTT, 0.6 mM MnC1₂, 60 mM NaC1, 0.05% NP-40, 5 µg/ml dt (oligodeoxythymidilic acid), 10 µg/ml poly A (polyriboadenylic acid), 10 µM dTTP, 1 Ci/mm ³²P dTTP. Plates were then incubated for 60 minutes at 37°C. After incubation samples were spotted onto Whatman DEAE-81 paper, washed and analyzed by counting or direct autoradiography.
In order to determine the specific sites of viral pathogenesis interrupted by the cyclodextrin compounds, we assayed the ability of the cyclodextrins treatment to effect reverse transcriptase levels of cells already infected with HIV-1. In contrast to the results observed when virus was added to uninfected cells, (see supra, Section 6.2.1.) no significant inhibition of reverse transcriptase was observed.

Substance: beta-cyclodextrin tetradecasulfate [Beta-CD-14S]
- effects on cells that have already been infected with HIV-1: no detectable effects

From EP0423240B1, “MODULATION OF VIRUS-HOST CELL INTERACTIONS USING CYCLIC OLIGOSACCHARIDES” (THE TRUSTEES OF THE UNIVERSITY OF PENNSYLVANIA, priority 1988, dated 1990)
